The values that follow come from patent US20080153910A1, “LYSINE IN THERAPEUTIC ANGIOGENESIS FOR CARDIAC AND CEREBRAL/NEURAL REPERFUSION” (priority 2001, published 2008).

“Also recorded” adds a separate entry of the source.

The subject of one test is adherent cellular growth. In words: Cellular expansion in culture (in-vitro). The note with it: compared to l-lysine; d-Lysine about 10 mcg/ml added load. Type of test: cell-based. The source says:
Photo 12, cell culture photographs of d-Lysine (about 10 mcg/ml of added load, in addition to the usual load of I-Lysine, whatever was there in the media as the metabolic requirement) mediated cellular expansion in culture. […] In-situ controlled and physiological expansion of constituent cells in a wound bed, including the endothelial cells and their mediation of normal angiogenic process, mediate only by lysine/derivative(s), without addition/intervention of any other additive(s), whatsoever, is the essence of present invention.

Another test concerns angiogenesis. In words: Oligo-lysine and d-lysine induced cell expansion and angiogenesis in-vivo. As to conditions: compared to l-lysine.
A further test concerns hybridoma cell mass. As to conditions: compared to other physico-chemical means (Datta, D et al. 1997); cited from earlier work.
The test system of another test is chronic wounds. In words: Controlled open trial of lysine in chronic human wounds. Type of test: in vivo. An excerpt: Chronic wounds of different anatomical locations as well as etiology were included in the controlled open trial of “lysine” for it's/their ability to induce angiogenesis and induction of the healthy granulation tissue formation in these chronic wounds. These included diabetic wounds and ulcers of various durations and severity, bed sores and pressure sores of various durations, infected wounds and cellulitic wounds of various origins, burns of different degrees and extents—both infected and otherwise, amputations, skingrafts, venous ulcers and even leprotic wounds and ulcers of long standing.
The wounds were debrided manually with gauge pieces soaked in normal saline to the point of bleeding of smaller vessels at the base of the wounds (wound-bed). Some of the chronic wounds were debrided surgically depending on the severity of the wound condition(s). Dressings were done with adequate amounts of the amino acid and/derivative(s) applied to the wound site(s) topically/locally. Wounds were closed with moistened gauge piece and adhesive tapes and the procedure repeated every 72-96 hrs. This approach constituted the experimental group subjects. In the control groups, conventional therapy were instituted both in terms of surgical/manual/enzymatic debridements as well as applying usual medications e.g. betadine, salutyl (a preparation which removes ischaemia by inducing angiogenesis in ischaemic wounds), trypsin, chymotrypsin, metronidazole preparations, silver sulfadiazine, regranex (a PDGF based healing agent containing “small” amount of the cationic amino acid lysine as “stabilizing agent”, along with quite a few other additives and ingredients), various surface antibiotics etc., depending on the clinical condition in question.
(§1) Tissue biopsies were taken from both groups—either animals or human beings—from appropriate wound site(s)/cardiac tissue (myocardium) at various time points post surgery/applications/dressings with the active ingredient(s), fixed at room temp. for 24 hrs. in formal saline (4% v/v). Tissue sections were stained with haematoxylin and eosin and observed under light microscope.

The next test deals with ischaemic myocardium. In words: Cardiac angiogenesis / coronary ischaemia model. Type of test: in vivo, sheep. The method, then: For cardiac angiogenesis experiments, healthy immunized adult sheep, weighing 20-30 Kgs were selected. The selected animals underwent routine blood tests and echocardiography prior to surgery which acted as the base line data. Under general anaesthesia, 4 sheep were operated through a left thoracotomy. […] In one of the experimental animals, in addition to the intramuscular injection of lysine, about 10 ml of the saturated solution of lysine was injected at the root of the aorta through a pig-tail catheter passed retrogradely through the descending thoracic aorta. […] Post-operative echocardiogram were done in all the animals at 96 hrs post-surgery to assess the left ventricular wall motion. Two weeks post-surgery echocardiograms were done to assess left ventricular wall motion. The animals were sacrificed and autopsy of the hearts were done for examination of the degree of angiogenesis.
Tissue biopsies were taken from both groups—either animals or human beings—from appropriate wound site(s)/cardiac tissue (myocardium) at various time points post surgery/applications/dressings with the active ingredient(s), fixed at room temp. for 24 hrs. in formal saline (4% v/v). Tissue sections were stained with haematoxylin and eosin and observed under light microscope. […]

A further test relates to acute surgical wounds. In words: Acute surgical wound model (full thickness skin incisions). Type of test: in vivo, Rabbits. As for the experimental part:
Rabbits (about 1.5 Kg body wt.) from Haffkine Biopharmaceuticals, Mumbai, India were used for acute surgical wound model experimentations.
For acute surgical wound experiments, dorsal paravertebral skin was shaved in both the groups. Full thickness skin incisions (about 1 inch long) were made on either side of the vertebral column under local anaesthesia. In the experimental group, “lysine” in powder form(s) was instilled/spinkled/applied (about 10-15 mg) in each wound and the wounds were closed by single suture each to keep the edges apposed. No surface/systemic antibiotics were given to the animals dressed with “lysine”. Similar treatments were given to the control wounds except for omitting the “lysine” dressing altogether. Control wounds were protected with surface antibiotics ointment, applied at the time of each dressing. The wounds were covered with adhesive plasters in both the groups. Dressings were replaced every 48-72 hrs.
as §1
For examination of wound tissues under scanning electron microscope, skin tissues were taken (about 1.5 inch square) surgically under local anaesthesia in such a way that the original wound incision lied at the center of this piece of skin tissue, which was fixed in formal saline (4%) for 24 hrs at room temp. and pressure. Before mounting on to the observation stub with the help of a double faced adhesive tape, the wet tissues were dried adequately first with tissue papers and then at 37 degree Centrigrade incubator for about 2 hrs. Finally the dried tissues were cut with scissors in such a way that the cut line in each case was perpendicular to the original incision line. The finally prepared samples were gold coated in a hummer for around 4 minutes in vacuum and examined in a scanning electron microscope (Jeol).

A further test deals with collagen synthesis. In words: 14C-Glycine incorporation in wound tissue. Type of test: in vivo. As to conditions: experimental wound, 100% (w/w) topical, 0.25 to 100 mg/sq. in. An excerpt: As glycine is present at every third position in the primary sequence of Collagen, ^14C-Glycine incorporation in the wound tissue was supposed to give an idea of differential collagen synthesis in experimental and control wounds.

A further test relates to protein synthesis. In words: 35S-Methionine incorporation in acute surgical wound tissue. Type of test: in vivo. The note with it: 72 hrs post surgery, topical, vs control wound, HCl.

With `NCCCC[C@@H](N)C(=O)O` [d-Lysine], the “cellular expansion / growth in-vitro” value with adherent cellular growth is on record as “equally effective”. In the test with angiogenesis, the angiogenesis in-vivo result is “equally effective” and the “expansion of cells in-vivo” value is “equally effective”.

With `NCCCC[C@H](N)C(=O)O` [lysine, Lysine], in the test with hybridoma cell mass, the “expansion of biomass (cell population)” value is listed as “expand the biomass (cell population) at the least possible time”. Also, in the test on chronic wounds (all types of acute and chronic wounds of both animal and human origin), the in-situ tissue repair entry was “excellent tissue regeneration in-situ”. Besides, the “granulation tissue / angiogenic response” value in the test on chronic wounds (bed sore, about two weeks of topical application) is “Extensive granulation tissue and profuse angiogenic response”. For the same compound, the “time to skin graft” value with chronic wounds (cellulitic wound following 3rd degree burn) was “around two weeks”. For the same compound, the “granulation/angiogenic tissue in wound bed” value with chronic wounds (cellulitic wound following 3rd degree burn, 11th day post initiation of therapy) is recorded as “extensive granulation/angiogenic tissue”. For the same compound, the granulation/angiogenesis entry was “reasonable granulation/angiogenesis” with chronic wounds (cellulitic wound following 3rd degree burn, third day of topical therapy) and “very good granulation/angiogenesi-s” in the test on chronic wounds (leprotic wound (about 3 yr old), topical). Besides, the “blood cell intravasation in the wound area” value in the test on chronic wounds (chronic diabetic ulcer, around 11th day post initiation of therapy) was “extensive blood cell intravasation”. For the same compound, in the test on chronic wounds (chronic diabetic ulcer, topical), the “glandular structures (histopathology)” value was “healthy glandular structures”. In addition, the “angiogenic response (histopathology)” value in the test on chronic wounds (chronic human wounds, topical) is reported as “profuse angiogenic response; also recorded: Extensive angiogenic response”. Moreover, in the test with chronic wounds (chronic stump wound), the “time to skin graft (clinical end point)” value was “around two weeks”. The granulation result with chronic wounds (chronic stump wound, within two weeks of topical therapy) is “extensive granulation”. The “Keratinocyte layer thickening (histopathology)” value in the test on chronic wounds (experimental wounds of human origin) is given as “very advanced degree of Keratinocyte layer thickening”. For the same compound, the “time to ready for skin graft” value in the test with chronic wounds (infected third degree burn, post institution of therapy) turned out to be 13 days. For the same compound, the “induction of granulation tissue/angiogenesis” value with chronic wounds (infected third degree burn, within around two weeks) is reported as “remarkable induction of granulation tissue/angiogenesis”. The reduction in size result in the test on chronic wounds (leprotic wound, about 12 weeks topical treatment) is given as “about 60%”. Besides, the “time to initiation of repair-by-in-situ-regeneration” value in the test on chronic wounds (topical and/or systemic therapy) was in the range of 72 to 96 h. Further, in the test with chronic wounds (wounds of different locations, origins and durations), the “time to first appearance of healthy granulation tissue” value was 72 to 96 h. Further, the “echocardiography: movement of myocardium in ischaemic zones” value in the test on ischaemic myocardium (96 hrs post surgery) is “definite non-asynchronous movement of the myocardium”. Moreover, in the test on ischaemic myocardium (21 days post surgery), the “hierarchical nature of the angiogenic response” value is reported as “capillaries filled with blood cells”. In the test with ischaemic myocardium (21 days post surgery, vs control), the “angiogenic response in ischaemic cardiac muscle tissue” value was “extensive angiogenic response”. In addition, in the test with ischaemic myocardium (around two-weeks, vs control), the “histopathology: angiogenic response” value was “advanced degree of matured angiogenic response”. The “granulation tissue (scanning electron microscopy)” value in the test with acute surgical wounds (acute surgical incision dressed with topically applied lysine, 72 hrs post surgery) is recorded as “spongy granulation tissue”; with acute surgical wounds (systemic lysine, i.p. injection, 5 ml, 5 mg/ml) it was “spongy granulation tissue in the vicinity of the incision”. In addition, the dividing cells in-vivo entry in the test on acute surgical wounds (acute surgical incision model, systemic application) is “stratified layers of dividing cells”. For the same compound, the “histopathology: cellular thickening from basal keratinocyte layer” value in the test with acute surgical wounds (rabbit, experimental vs control wound) is on record as “extensive cellular thickening from the basal keratinocyte layer”.

Take `Cl.NCCCC[C@H](N)C(=O)O` [L-lysine HCl]: the 14C-Glycine incorporation entry in the test on collagen synthesis is “Comparatively low incorporation”. The 35S-Methionine incorporation entry in the test on protein synthesis (listed as 100% (w/w) powder formulation) is recorded as “Significant difference”; in the test on protein synthesis (listed as amino acid) it was “Significantly more”.
